# Target: T1, human OX2R (Homo sapiens, UniProt O43614)
# T1 construct: host or cells: CHO-K1 (Chinese Hamster Ovary K1)
# T1 sequence (O43614 1-444): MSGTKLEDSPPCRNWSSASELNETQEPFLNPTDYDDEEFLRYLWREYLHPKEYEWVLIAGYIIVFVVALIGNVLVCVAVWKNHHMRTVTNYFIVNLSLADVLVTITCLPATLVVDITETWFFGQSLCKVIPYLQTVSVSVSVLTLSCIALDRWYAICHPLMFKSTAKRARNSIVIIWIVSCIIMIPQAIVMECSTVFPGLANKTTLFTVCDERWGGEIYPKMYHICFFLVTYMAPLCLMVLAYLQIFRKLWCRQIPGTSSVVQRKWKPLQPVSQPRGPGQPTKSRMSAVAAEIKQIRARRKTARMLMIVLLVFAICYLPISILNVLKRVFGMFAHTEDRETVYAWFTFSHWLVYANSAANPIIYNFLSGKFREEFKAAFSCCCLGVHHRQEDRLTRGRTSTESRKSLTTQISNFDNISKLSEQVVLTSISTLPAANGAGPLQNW
# Experiment: Evaluation of OX2R agonist activity (intracellular calcium, CHO-K1 cells with forced expression of human OX2R)
# Assay type: cell-based
# Details: CHO-K1 cells expressing human OX2R; 100% = 5 µM of the reference compound; read-out: hOX2R EC50
# Procedure: Evaluation of OX2R agonist activity
# Chinese Hamster Ovary K1 (CHO-K1) cells (GenScript) with forced expression of human OX2R were seeded onto a 384 well microplate (Corning) at 7500 cells/well and cultured for 24 hours. 20 µL of the loading buffer (25 mM HEPES containing 1.25 mM of Probenecid and 2.5 µg/mL of Fluo 4-AM at final concentration, Hank's balanced salt solution, 0.06% Pluronic F-127, Quenching buffer) in the Calcium Kit II (DOJINDO LABORATORIES) was added, and the microplate was allowed to stand for 30 minutes. A reference compound (Example435 of WO 2019/027058, N-[(2S,3S)-2-[[3-(3,5-difluorophenyl)-2-fluoro-phenyl]methyl]-1-(2-hydroxy-2-methylpropanoyl)pyrrolidin-3-yl]ethanesulfonamide) or the test compound was added in 10 µL, and changes in intracellular calcium ion concentration were measured using FDSS7000EX (Hamamatsu Photonics K.K.) as a fluorescence intensity ratio obtained upon dual wavelength excitation at 480 nm and 540 nm. Note that the reference compound or test compound was dissolved in DMSO (final concentration of DMSO was 0.5%) and diluted with an assay buffer (20 mM HEPES, Hank's balanced salt solution, 0.1% BSA). The difference between the maximum and minimum fluorescence values between 5 and 7 seconds after the addition of the test compound or reference compound was used as the indicator. The value of wells to which the assay buffer containing no test compound was added was defined as 0%, and the value of wells to which 5 µM of the reference compound was added was defined as 100%. The 50% effective concentration (EC50 value) was determined from the values obtained when various concentrations of the test compound were added. […]
row,EC50,SMILES
1,60 nM,"Cc1cccc(-c2cccc(C[C@H]3[C@@H](NS(C)(=O)=O)C4CC(C4)N3C(=O)C(C)(C)O)c2F)c1 [Example 11, N-[(3S,4S)-3-[(2-Fluoro-3'-methyl[biphenyl]-3-yl)methyl]-2-(2-hydroxy-2-methylpropanoyl)-2-azabicyclo[3.1.1]heptan-4-yl]methanesulfonamide]"
2,303 nM,"C[C@H](O)C(=O)N1C2CC(C2)[C@H](NS(C)(=O)=O)[C@@H]1Cc1cccc(-c2cc(F)cc(F)c2)c1F [Example 15, N-{(3S,4S)-2-[(2S)-2-Hydroxypropanoyl]-3-[(2,3',5'-trifluoro[biphenyl]-3-yl)methyl]-2-azabicyclo[3.1.1]heptan-4-yl}methanesulfonamide]"
3,11 nM,"C[C@@H](O)C(=O)N1C2CC(C2)[C@H](NS(C)(=O)=O)[C@@H]1Cc1cccc(-c2cc(F)cc(F)c2)c1F [Example 16, N-{(3S,4S)-2-[(2R)-2-Hydroxypropanoyl]-3-[(2,3',5'-trifluoro[biphenyl]-3-yl)methyl]-2-azabicyclo[3.1.1]heptan-4-yl}methanesulfonamide]"
4,108 nM,"CS(=O)(=O)N[C@H]1C2CC(C2)N(C(=O)[C@H]2CCCO2)[C@H]1Cc1cccc(-c2cc(F)cc(F)c2)c1F [Example 17, N-{(3S,4S)-2-[(2R)-Tetrahydrofuran-2-ylcarbonyl]-3-[(2,3',5'-trifluoro[biphenyl]-3-yl)methyl]-2-azabicyclo[3.1.1]heptan-4-yl}methanesulfonamide]"
5,784 nM,"CC(C)(O)C(=O)N1C2CC(C2)[C@H](NS(C)(=O)=O)[C@@H]1Cc1cccc(-c2cccc(C(F)(F)F)c2)c1F [Example 18, N-[(3S,4S)-3-{[2-Fluoro-3'-(trifluoromethyl)[biphenyl]-3-yl]methyl}-2-(2-hydroxy-2-methylpropanoyl)-2-azabicyclo[3.1.1]heptan-4-yl]methanesulfonamide]"
6,380 nM,"CS(=O)(=O)N[C@H]1C2CC(C2)N(C(=O)C2(F)CC2)[C@H]1Cc1cccc(-c2cc(F)cc(F)c2)c1F [Example 19, N-{(3S,4S)-2-[(1-Fluorocyclopropyl)carbonyl]-3-[(2,3',5'-trifluoro[biphenyl]-3-yl)methyl]-2-azabicyclo[3.1.1]heptan-4-yl}methanesulfonamide]"
7,32 nM,"CS(=O)(=O)N[C@H]1C2CC(C2)N(C(=O)C2CC2)[C@H]1Cc1cccc(-c2cc(F)cc(F)c2)c1F [Example 20, N-{(3S,4S)-2-(Cyclopropylcarbonyl)-3-[(2,3',5'-trifluoro[biphenyl]-3-yl)methyl]-2-azabicyclo[3.1.1]heptan-4-yl}methanesulfonamide]"
8,217 nM,"CC(C)(O)C(=O)N1C2CC(C2)[C@H](NS(C)(=O)=O)[C@@H]1Cc1cccc(-c2cccc(Cl)n2)c1F [Example 21, N-[(3S,4S)-3-[3-(6-Chloropyridin-2-yl)-2-fluorobenzyl]-2-(2-hydroxy-2-methylpropanoyl)-2-azabicyclo[3.1.1]heptan-4-yl]methanesulfonamide]"
9,15 nM,"C[C@@H](O)C(=O)N1C2CC(C2)[C@H](NS(C)(=O)=O)[C@@H]1Cc1cccc(-c2cccc(C(F)F)c2)c1F [Example 24, N-{(3S,4S)-3-{[3'-(Difluoromethyl)-2-fluoro[biphenyl]-3-yl]methyl}-2-[(2R)-2-hydroxypropanoyl]-2-azabicyclo[3.1.1]heptan-4-yl}methanesulfonamide]"
10,35 nM,"CC[C@@H](O)C(=O)N1C2CC(C2)[C@H](NS(C)(=O)=O)[C@@H]1Cc1cccc(-c2cc(F)cc(F)c2)c1F [Example 26, N-{(3S,4S)-2-[(2R)-2-Hydroxybutanoyl]-3-[(2,3',5'-trifluoro[biphenyl]-3-yl)methyl]-2-azabicyclo[3.1.1]heptan-4-yl}methanesulfonamide]"
11,61 nM,"CNC(=O)N1C2CC(C2)[C@H](NS(C)(=O)=O)[C@@H]1Cc1cccc(-c2cc(F)cc(F)c2)c1F [Example 27, (3S,4S)-N-Methyl-4-[(methylsulfonyl)amino]-3-[(2,3',5'-trifluoro[biphenyl]-3-yl)methyl]-2-azabicyclo[3.1.1]heptane-2-carboxamide]"
12,247 nM,"COCC(=O)N1C2CC(C2)[C@H](NS(C)(=O)=O)[C@@H]1Cc1cccc(-c2cc(F)cc(F)c2)c1F [Example 28, N-{(3S,4S)-2-(Methoxyacetyl)-3-[(2,3',5'-trifluoro[biphenyl]-3-yl)methyl]-2-azabicyclo[3.1.1]heptan-4-yl}methanesulfonamide]"
13,253 nM,"CS(=O)(=O)N[C@H]1C2CC(C2)N(C(=O)[C@H]2C[C@@H]2F)[C@H]1Cc1cccc(-c2cc(F)cc(F)c2)c1F [Example 29, N-{(3S,4S)-2-{[(1R,2S)-2-Fluorocyclopropyl]carbonyl}-3-[(2,3',5'-trifluoro[biphenyl]-3-yl)methyl]-2-azabicyclo[3.1.1]heptan-4-yl}methanesulfonamide]"
14,148 nM,"CS(=O)(=O)N[C@H]1C2CC(C2)N(C(=O)[C@@H]2C[C@H]2F)[C@H]1Cc1cccc(-c2cc(F)cc(F)c2)c1F [Example 30, N-{(3S,4S)-2-{[(1S,2R)-2-Fluorocyclopropyl]carbonyl}-3-[(2,3',5'-trifluoro[biphenyl]-3-yl)methyl]-2-azabicyclo[3.1.1]heptan-4-yl}methanesulfonamide]"
15,189 nM,"C[C@@H](O)C(=O)N1C2CC(C2)[C@H](NS(C)(=O)=O)[C@@H]1Cc1cccc(-c2cc(F)cc(C#N)c2)c1F [Example 31, N-{(3S,4S)-3-[(3'-Cyano-2,5'-difluoro[biphenyl]-3-yl)methyl]-2-[(2R)-2-hydroxypropanoyl]-2-azabicyclo[3.1.1]heptan-4-yl}methanesulfonamide]"
16,326 nM,"CS(=O)(=O)N[C@H]1C2CC(C2)N(C(=O)C2(C#N)CC2)[C@H]1Cc1cccc(-c2cc(F)cc(F)c2)c1F [Example 33, N-{(3S,4S)-2-[(1-Cyanocyclopropyl)carbonyl]-3-[(2,3',5'-trifluoro[biphenyl]-3-yl)methyl]-2-azabicyclo[3.1.1]heptan-4-yl}methanesulfonamide]"
17,289 nM,"CS(=O)(=O)N[C@H]1C2CC(C2)N(C(=O)CO)[C@H]1Cc1cccc(-c2cc(F)cc(F)c2)c1F [Example 34, N-{(3S,4S)-2-(Hydroxyacetyl)-3-[(2,3',5'-trifluoro[biphenyl]-3-yl)methyl]-2-azabicyclo[3.1.1]heptan-4-yl}methanesulfonamide]"
18,75 nM,"CC(C)NC(=O)N1C2CC(C2)[C@H](NS(C)(=O)=O)[C@@H]1Cc1cccc(-c2cc(F)cc(F)c2)c1F [Example 35, (3S,4S)-4-[(Methylsulfonyl)amino]-N-(propan-2-yl)-3-[(2,3',5'-trifluoro[biphenyl]-3-yl)methyl]-2-azabicyclo[3.1.1]heptane-2-carboxamide]"
19,18 nM,"CCNC(=O)N1C2CC(C2)[C@H](NS(C)(=O)=O)[C@@H]1Cc1cccc(-c2ccccc2)c1F [Example 37, (3S,4S)-N-Ethyl-3-[(2-fluoro[biphenyl]-3-yl)methyl]-4-[(methylsulfonyl)amino]-2-azabicyclo[3.1.1]heptane-2-carboxamide]"
20,68 nM,"C[C@@H](O)C(=O)N1C2CC(C2)[C@H](NS(C)(=O)=O)[C@@H]1Cc1cccc(-c2cccc3c2OC(F)(F)O3)c1F [Example 38, N-{(3S,4S)-3-[3-(2,2-Difluoro-1,3-benzodioxol-4-yl)-2-fluorobenzyl]-2-[(2R)-2-hydroxypropanoyl]-2-azabicyclo[3.1.1]heptan-4-yl}methanesulfonamide]"

# Source: patent EP4635944A1, “2-AZABICYCLO[3.1.1]HEPTANE COMPOUND” (Daiichi Sankyo Company, Limited, priority 2022, dated 2024)
